This passage reports IC50 results from patent publication US10106501B2, “Nuclear receptor modulators” (AbbVie Inc., priority 2015, dated 2018).

Each structure is given as a SMILES string. Some results are limits rather than exact numbers.

This experiment deals with T1, chimeric human RORγ-Gal4 receptor (Homo sapiens, UniProt P51449).
T1 sequence (P51449 269-508 limits assumed): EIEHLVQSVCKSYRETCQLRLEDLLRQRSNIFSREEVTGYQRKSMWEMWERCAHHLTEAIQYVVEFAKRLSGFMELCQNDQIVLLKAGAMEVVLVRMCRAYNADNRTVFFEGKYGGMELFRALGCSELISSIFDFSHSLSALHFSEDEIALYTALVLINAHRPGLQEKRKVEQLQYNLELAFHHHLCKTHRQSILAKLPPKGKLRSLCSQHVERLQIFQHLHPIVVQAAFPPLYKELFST
Nature of the experiment: transient transactivation assay (RORγ-Gal4 luciferase reporter). It counts as cell-based. The note with it: Cos-7 cells transfected with RORγ-Gal4 and 5Gal4 pGL3 TK Luc reporter; overnight incubation; T0901317 at 10^-5 M as reference; read-out: IC50.
On to `Cc1cc(OC(F)F)cc2ccn(Cc3c(Cl)ccc(C(=O)N4CCC(CC(=O)O)CC4)c3Cl)c12` [EM, 2-(1-(2,4-dichloro-3-((5-(difluoromethoxy)-7-methyl-1H-indol-1-yl)methyl)benzoyl)piperidin-4-yl)acetic acid], for which the IC50 is less than 100 nM.
In the case of `Cn1c(Cc2c(Cl)ccc(C(=O)N3CCOCC3)c2Cl)nc2c(C(F)(F)F)cc(Br)cc21` [CE, (3-((6-bromo-1-methyl-4-(trifluoromethyl)-1H-benzo[d]imidazol-2-yl)methyl)-2,4-dichlorophenyl)(morpholino)methanone], the IC50 is 100 to 500 nM.
As to `COCCC1CCN(C(=O)c2ccc(Cl)c(Cc3nc4c(C)cc(C(F)(F)F)cn4c3C)c2Cl)CC1` [CT-7], the IC50 was less than 100 nM.
For `Cc1cc(C(F)(F)F)cc2c1cc(Cc1c(Cl)ccc(C(=O)N3CCC(C(=O)O)C(F)C3)c1Cl)n2C` (stereo not drawn) [Example BA, 1-(2,4-dichloro-3-((1,4-dimethyl-6-(trifluoromethyl)-1H-indol-2-yl)methyl)benzoyl)-3-fluoropiperidine-4-carboxylic acid], the IC50 was less than 100 nM.
For `Cc1cc(C#N)nc2c1cc(Cc1c(Cl)ccc(C(=O)N3CCC(C4COC4)CC3)c1Cl)n2C` [CL-2], the IC50 is less than 100 nM.
With `Cn1c(Cc2c(Cl)ccc(C(=O)N3CCOCC3)c2Cl)cc2c(Cl)cc(Cl)cc21` [EZ, (2,4-dichloro-3-((4,6-dichloro-1-methyl-1H-indol-2-yl)methyl)phenyl)(morpholino)methanone] the figure was less than 100 nM.
The same measure for `Cc1cc(C#N)nc2c1nc(Cc1c(Cl)ccc(C(=O)N3CCOCC3)c1Cl)n2C` [CI, 2-(2,6-dichloro-3-(morpholine-4-carbonyl)benzyl)-3,7-dimethyl-3H-imidazo[4,5-b]pyridine-5-carbonitrile]: 1000 to 10000 nM; for `Cc1cc(C(F)(F)F)cc2cnn(Cc3c(Cl)ccc(C(=O)N4CCC(CC(=O)O)CC4)c3Cl)c12` [EC, 2-(1-(2,4-dichloro-3-((7-methyl-5-(trifluoromethyl)-1H-indazol-1-yl)methyl)benzoyl)piperidin-4-yl)acetic acid]: less than 100 nM; for `Cc1cc(C(F)(F)F)cc2c1cc(Cc1c(Cl)cn(CCC(=O)O)c(=O)c1Cl)n2C` [Example BI, 3-(3,5-dichloro-4-((1,4-dimethyl-6-(trifluoromethyl)-1H-indol-2-yl)methyl)-2-oxopyridin-1(2H)-yl)propanoic acid]: 1000 to 10000 nM.
As for `COCCN1CCN(C(=O)c2ccc(Cl)c(Cc3cc4c(C)cc(C(F)(F)F)cc4n3C)c2Cl)CC1` [A, (2,4-dichloro-3-((1,4-dimethyl-6-(trifluoromethyl)-1H-indol-2-yl)methyl)phenyl)(4-(2-methoxyethyl)piperazin-1-yl)methanone], the half-maximal inhibitory concentration (IC50) is less than 100 nM.
With `Cc1cc(C#N)cc2c1cc(Cc1c(Cl)ccc(C(=O)N3CCN(C(C)C)CC3)c1Cl)n2C` [AA-11] the figure was less than 100 nM; with `CCOC(=O)CN1CCN(C(=O)c2ccc(Cl)c(Cc3cc4c(C)cc(C(F)(F)F)cc4n3C)c2Cl)CC1` [Example AV, ethyl 2-(4-(2,4-dichloro-3-((1,4-dimethyl-6-(trifluoromethyl)-1H-indol-2-yl)methyl)benzoyl)piperazin-1-yl)acetate], 100 to 500 nM; with `Cc1cc(C#N)cc2c1cc(Cc1c(Cl)ncc(C(=O)N3CCC(C4COC4)CC3)c1Cl)n2C` [Example FC, 2-((2,4-dichloro-5-(4-(oxetan-3-yl)piperidine-1-carbonyl)pyridin-3-yl)methyl)-1,4-dimethyl-1H-indole-6-carbonitrile], less than 100 nM.
The same measure for `Cc1cc(C(F)(F)F)cc2c1nc(Cc1c(Cl)ccc(C(=O)N3CC4(COC4)C3)c1Cl)n2C` [BJ-28]: 1000 to 10000 nM.
Turning to `Cc1cc(C(F)(F)F)cc2c1cc(Cc1c(Cl)ccc(C(=O)N3CCC(CC(=O)O)C3)c1Cl)n2C` (stereo not drawn) [Example B-6], the half-inhibitory concentration (IC50) was less than 100 nM.
On to `Cc1ccc(C(=O)N2CCC(CC(=O)O)CC2)c(C)c1Cn1ccc2cc(OC(F)(F)F)cc(C)c21` [EK, 2-(1-(2,4-dimethyl-3-((7-methyl-5-(trifluoromethoxy)-1H-indol-1-yl)methyl)benzoyl)piperidin-4-yl)acetic acid], for which the half-inhibitory concentration (IC50) was less than 100 nM.
With `Cc1cc(C#N)nc2c1cc(Cc1c(Cl)ccc(C(=O)N3CCC(O)CC3)c1Cl)n2C` [CL-1], the IC50 was less than 100 nM.
On to `Cc1cn(C(=O)c2c(Cl)ccc(C(=O)N3CCC(CC(=O)O)CC3)c2Cl)c2c(C)cc(C(F)(F)F)cc12` [DJ, 2-(1-(2,4-dichloro-3-(3,7-dimethyl-5-(trifluoromethyl)-1H-indole-1-carbonyl)benzoyl)piperidin-4-yl)acetic acid], for which the IC50 is less than 100 nM.
For the molecule `Cn1c(Cc2c(Cl)cnc(C(=O)N3CCC(CC(=O)O)CC3)c2Cl)cc2ccc(OC(F)(F)F)cc21` [Example GK, 2-(1-(3,5-dichloro-4-((1-methyl-6-(trifluoromethoxy)-1H-indol-2-yl)methyl)picolinoyl)piperidin-4-yl)acetic acid], the IC50 is less than 100 nM.
`Cc1cc(C(F)(F)F)cc2c1nc(Cc1c(Cl)ccc(C(=O)N3CCC(C(C)(C)O)CC3)c1Cl)n2C` [BJ-9]: the IC50 was in the range of 100 to 500 nM.
Turning to `Cc1cc(C(F)(F)F)cc2c1cc(Cc1c(Cl)ccc(C(=O)N3CCN(C4CC(C(=O)O)C4)CC3)c1Cl)n2C` (stereo not drawn) [Example S, 3-(4-(2,4-dichloro-3-((1,4-dimethyl-6-(trifluoromethyl)-1H-indol-2-yl)methyl)benzoyl)piperazin-1-yl)cyclobutanecarboxylic acid], the concentration for half-maximal inhibition (IC50) is less than 100 nM.
With `Cc1cn(C(=O)c2c(Cl)ccc(C(=O)N3CCC(O)CC3)c2Cl)c2c(C)cc(C#N)cc12` [DM, 1-(2,6-dichloro-3-(4-hydroxypiperidine-1-carbonyl)benzoyl)-3,7-dimethyl-1H-indole-5-carbonitrile], the IC50 was in the range of 100 to 500 nM.
Turning to `Cc1cc(C(F)(F)F)cc2c1cc(Cc1c(Cl)cnc(C(=O)N3CCC(CC(=O)O)CC3)c1Cl)n2C` [Example FH, 2-(1-(3,5-dichloro-4-((1,4-dimethyl-6-(trifluoromethyl)-1H-indol-2-yl)methyl)picolinoyl)piperidin-4-yl)acetic acid], the half-maximal inhibitory concentration (IC50) was less than 100 nM.
As for `Cc1cc(OC(F)(F)F)cc2c1cc(Cc1c(Cl)ccc(C(=O)N3CC[C@@H](C(=O)O)[C@@H](C)C3)c1Cl)n2C` [DP-3, (3R,4R)-1-(2,4-dichloro-3-((1,4-dimethyl-6-(trifluoromethoxy)-1H-indol-2-yl)methyl)benzoyl)-3-methylpiperidine-4-carboxylic acid], the 50% inhibitory concentration (IC50) was less than 100 nM.
As for `Cc1cc(OC(F)F)cc2c1cc(Cc1c(Cl)ccc(C(=O)N3CCC(C(=O)O)C(C)C3)c1Cl)n2C` (stereo not drawn) [FF-1], the IC50 is less than 100 nM.
For `Cc1cc(C(F)(F)F)cc2c1c(Cc1c(Cl)ncc(C(=O)N3CCC(CC(=O)O)CC3)c1Cl)cn2C` [DV, 2-[1-[4,6-dichloro-5-[[1,4-dimethyl-6-(trifluoromethyl)-1H-indol-3-yl]methyl]pyridine-3-carbonyl]-4-piperidyl]acetic acid], the IC50 was less than 100 nM.
For the molecule `Cc1cc(C(=O)N(C)C)cc2c1cc(Cc1c(Cl)ccc(C(=O)N3CCOCC3)c1Cl)n2C` [Example FO, 2-[[2,6-dichloro-3-(morpholine-4-carbonyl)phenyl]methyl]-N,N,1,4-tetramethyl-indole-6-carboxamide], the 50% inhibitory concentration (IC50) is less than 100 nM.
